ChEMBL document CHEMBL3217737, “Discovery of a highly selective FLT3 kinase inhibitor from phenotypic cell viability profiling” (Medchemcomm, 2013)

Tests used:
[1] = Cytotoxicity against human U87MG cells assessed as cell viability at 1 uM after 24 hrs by WST1 assay; assay type: functional, U-87MG ATCC; conditions: U-87 MG, read-out: Activity
MV4-11 = assay: Cytotoxicity against human MV4-11 cells assessed as cell viability at 1 uM after 24 hrs by WST1 assay; assay type: functional; conditions: MV4-11, 24 h, read-out: Activity
MDA-MB-231 = assay: Cytotoxicity against human MDA-MB-231 cells assessed as cell viability at 1 uM after 24 hrs by WST1 assay; assay type: functional; conditions: MDA-MB-231, 24 h, read-out: Activity
MCF7 = assay: Cytotoxicity against human MCF7 cells assessed as cell viability at 1 uM after 24 hrs by WST1 assay; assay type: functional; conditions: MCF7, 24 h, read-out: Activity
[2] = Cytotoxicity against rat L6 cells assessed as cell viability at 1 uM after 24 hrs by WST1 assay; assay type: cell-based; conditions: read-out: Activity
[3] = Cytotoxicity against mouse NIH/3T3 cells assessed as cell viability at 1 uM after 24 hrs by WST1 assay; assay type: cell-based, NIH3T3; conditions: read-out: Activity

Structure (SMILES)	viability at 1 µM [1] [%]	viability at 1 µM (MV4-11) [%]	viability at 1 µM (MDA-MB-231) [%]	viability at 1 µM (MCF7) [%]	viability at 24 h, 1 µM [2] [%]	viability at 24 h, 1 µM [3] [%]
COc1ccc(-c2n[nH]c3ncc(-c4cc(Br)ccc4N)cc23)cc1	100	82	112	88	104	108
Cc1n[nH]c2ncc(-c3ccc(Cl)cc3N)cc12	99	91	107	102	102	103
CNc1ccccc1-c1cnc2[nH]nc(-c3ccc(OC)cc3)c2c1	100	86	114	101	109	106
COc1ccc(-c2n[nH]c3ncc(-c4ccccc4N)cc23)cc1	94	89	101	102	108	94
COC(=O)c1cccc(N)c1-c1cnc2[nH]nc(-c3ccc(OC)cc3)c2c1	102	90	110	89	105	101
Nc1cc(Cl)ccc1-c1cnc2[nH]nc(-c3ccccc3)c2c1	101	85	105	103	96	111
COc1ccc(-c2n[nH]c3ncc(-c4c(N)cccc4[N+](=O)[O-])cc23)cc1	104	93	123	97	110	102
COc1ccc(-c2n[nH]c3ncc(-c4ccccc4NC(=O)NCc4ccccc4)cc23)cc1	94	104	101	99	104	94
COc1ccc(-c2n[nH]c3ncc(-c4ccc(F)cc4N)cc23)cc1	94	94	95	97	104	104
COc1ccc(-c2n[nH]c3ncc(-c4ccccc4NCc4ccccc4)cc23)cc1	95	97	109	98	102	99
COc1ccc(-c2n[nH]c3ncc(-c4cccc(F)c4N)cc23)cc1	94	82	109	100	100	108
COc1ccc(-c2n[nH]c3ncc(-c4cc([N+](=O)[O-])ccc4N)cc23)cc1	97	92	114	102	92	99
